Reference: patent publication US11439641B2, “Pyrimidine JAK inhibitors for the treatment of skin diseases” (THERAVANCE BIOPHARMA R&D IP, LLC, priority 2019, dated 2022)
In brackets after ≈: the same amount, converted by molar mass.

Columns and labels:
JAK3 = JAK3 (Homo sapiens (Human), UniProt P52333); test: Biochemical JAK and Tyk2 Kinase Assays (LanthaScreen), JAK3; details: 1.6 μM ATP (Km), pIC50 converted to pKi by Cheng-Prusoff; for Ki: read-out: JAK 3 (pKi) (converted)
Caco-2 cell monolayer = test: Caco-2 Permeation Assay; assay type: in vitro ADME; details: Papp, 5 μM compound; for Cacoverap Kp 10^−6 cm/sec: A→B in the presence of 25 μM verapamil (P-gp inhibitor); for Caco Kp 10^−6 cm/sec: apical to basal (A→B)
Description: Assay 3: Caco-2 Permeation Assay
The Caco 2 permeability assay was used as a surrogate for assessment of skin permeability. This assay measures the in vitro permeability across a monolayer of Caco-2 cells, which morphologically and functionally resemble the enterocytes of the small intestine.
CacoReady 24-well transwell plates were obtained from ADMEcell (Alameda, Calif.). The compounds were evaluated at a concentration of 5 μM from 10 mM DMSO stock solutions in duplicate (n=2). Transport in the apical to basal (A→B) direction was determined in Caco 2 cell monolayers. From these values the apparent permeability (Papp) was calculated. To inform on the potential of the compound to be a P-gp substrate, the transport of the compound across the Caco-2 cell monolayer was also determined in the presence of 25 μM of the known P-gp inhibitor verapamil (Yusa and Tsuruo et al., Cancer Research, vol. 49, no. 18, 1989, pp. 5002-06).
Caco-2 culture media consisted of standard filtered DMEM, FCS 10%, L-Glutamine 1%, and PenStrep 1%. The experiment was conducted at 37° C. and in a CO2 (5%) incubator. The basal assay plate was prepared by adding 750 pt of transport buffer to A→B wells. A CacoReady™ plate was prepared by removing the Caco-2 media from the apical wells and replacing with fresh transport media (200 pt repeated for a total of 3 washes). Blank media (200 μL) was then replaced with diluted compound. To begin the incubation, the basal plate was removed from the incubator and the apical section was added on top of it. Samples were collected from the apical and basal compartments for time zero (t0). Samples were collected again after 120 minutes (t120) from the apical and basal compartments. All samples were diluted and prepared for bioanalysis by LC-MS/MS. The permeability coefficients (Papp, mean A to B) and (Papp, mean A to B+Verapamil) in cm/sec were calculated as dQ (flux)/(dt×Area×concentration).
In this assay, a compound with a Papp value of more than about 12×10−6 cm/sec is considered to have high permeability.

[1] = system: IL-2 stimulated pSTAT5 in Tall-1 T cells; test: Inhibition of IL-2 Stimulated pSTAT5 in Tall-1 T Cells; assay type: cell-based; details: Tall-1 human T cell line, IL-2 300 ng/mL, AlphaLisa; for IC50: read-out: Tall-1 IL2 pSTAT5 (pIC50) (converted)
Summary of the method: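 Cells preincubated with compound 1 hour at 37° C, then stimulated with IL-2 (final 300 ng/mL) for 30 minutes. After lysis, pSTAT5 (Tyr694/699) read by AlphaLISA luminescence. IC50 from inhibition curves, reported as pIC50 (mean±SD).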

Aqueous Solubility Assay = details: PBS buffer pH 7.4; maximum upper limit 1,000 μM
Description: Assay 5: Aqueous Solubility Assay
The purpose of this assay was to quantify the solubility of test compounds in pH 4 and pH 7.4 PBS buffers. The assay required 40 μL of 10 mM DMSO test compound solution per desired buffer in addition to 20 μL required to make a test standard. For example, to test a compound in both buffers, 100 μL (2*40 μL+20 μL) of 10 mM DMSO compound stock solution was required.
The standard was created by diluting 20 μL of 10 mM DMSO compound stock solution into 180 μL of methanol and was shaken for five minutes to ensure solution uniformity. […] This 1,000 μM solution was run on an Agilent 1260 LC-MS system by injecting 2 μL in order to obtain the peak area. For the test solutions, 40 μL of 10 mM DMSO compound stock solution, per PBS buffer condition, were dried down into a powder overnight. Once in powder form, 400 μL of the desired PBS buffer was added to the powder and allowed to shake vigorously for four hours. The maximum theoretical concentration for this sample solution was 1,000 μM. After four hours of shaking, the samples were centrifuged for 10 minutes at 3,000 RPM before injecting 2 μL on the same Agilent 1260 LC-MS system to obtain the peak area.
In Table 6 below, A represents a value above 500, B represents a value between 250 and 500, C represents a value between 50 and 250, D represents a value between 10 and 50, and E represents a value below 10.

JAK2 = JAK2 (Homo sapiens (Human), UniProt O60674); test: Biochemical JAK and Tyk2 Kinase Assays (LanthaScreen), JAK2; details: 3 μM ATP (Km); pIC50 converted to pKi by Cheng-Prusoff
Sequence of JAK2 (O60674 whole entry): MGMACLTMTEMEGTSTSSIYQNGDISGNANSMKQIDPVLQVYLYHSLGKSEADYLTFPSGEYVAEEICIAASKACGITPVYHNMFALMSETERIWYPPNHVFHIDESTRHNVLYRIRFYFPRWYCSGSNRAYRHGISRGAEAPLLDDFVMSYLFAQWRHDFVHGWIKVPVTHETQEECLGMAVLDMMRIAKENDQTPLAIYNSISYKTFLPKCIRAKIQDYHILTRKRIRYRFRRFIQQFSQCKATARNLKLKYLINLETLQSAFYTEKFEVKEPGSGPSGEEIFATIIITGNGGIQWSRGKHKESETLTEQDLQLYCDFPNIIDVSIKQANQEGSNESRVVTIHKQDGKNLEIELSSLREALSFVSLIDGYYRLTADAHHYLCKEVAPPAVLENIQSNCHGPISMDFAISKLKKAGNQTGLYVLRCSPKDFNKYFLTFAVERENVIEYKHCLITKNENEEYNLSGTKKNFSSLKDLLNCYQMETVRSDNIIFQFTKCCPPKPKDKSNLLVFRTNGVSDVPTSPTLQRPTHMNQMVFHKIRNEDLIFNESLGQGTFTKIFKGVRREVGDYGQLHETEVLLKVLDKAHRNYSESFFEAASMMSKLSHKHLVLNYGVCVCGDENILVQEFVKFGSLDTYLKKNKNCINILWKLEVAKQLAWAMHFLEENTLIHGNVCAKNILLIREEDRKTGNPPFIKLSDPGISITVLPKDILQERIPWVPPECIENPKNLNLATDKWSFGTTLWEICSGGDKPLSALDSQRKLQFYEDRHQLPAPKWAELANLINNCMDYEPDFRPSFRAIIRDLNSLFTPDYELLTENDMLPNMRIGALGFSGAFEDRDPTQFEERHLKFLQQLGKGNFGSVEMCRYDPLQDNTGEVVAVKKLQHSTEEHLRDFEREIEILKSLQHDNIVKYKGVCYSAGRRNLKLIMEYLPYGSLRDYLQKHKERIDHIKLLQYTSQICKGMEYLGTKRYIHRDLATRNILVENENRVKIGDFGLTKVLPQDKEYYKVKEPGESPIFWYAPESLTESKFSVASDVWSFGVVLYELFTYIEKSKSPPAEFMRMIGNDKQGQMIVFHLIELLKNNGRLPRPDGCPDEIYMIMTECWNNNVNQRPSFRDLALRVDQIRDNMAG
Description: (§1) Assay 1: Biochemical JAK and Tyk2 Kinase Assays
(§2) A panel of four LanthaScreen JAK biochemical assays (JAK1, 2, 3 and Tyk2) were carried in a common kinase reaction buffer (50 mM HEPES, pH 7.5, 0.01% Brij-35, 10 mM MgCl2, and 1 mM EGTA). Recombinant GST-tagged JAK enzymes and a GFP-tagged STAT1 peptide substrate were obtained from Life Technologies.
(§3) Serially or discretely diluted compounds were pre-incubated with each of the four JAK enzymes and the substrate in white 384-well microplates (Corning) at ambient temperature for 1 h. ATP was subsequently added to initiate the kinase reactions in 10 μL total volume, with 1% DMSO. The final enzyme concentrations for JAK1, 2, 3 and Tyk2 are 4.2 nM, 0.1 nM, 1 nM, and 0.25 nM respectively; the corresponding Km ATP concentrations used are 25 μM, 3 μM, 1.6 μM, and 10 μM; while the substrate concentration is 200 nM for all four assays. Kinase reactions were allowed to proceed for 1 hour at ambient temperature before a 10 μL preparation of EDTA (10 mM final concentration) and Tb-anti-pSTAT1 (pTyr701) antibody (Life Technologies, 2 nM final concentration) in TR-FRET dilution buffer (Life Technologies) was added. The plates were allowed to incubate at ambient temperature for 1 h before being read on the EnVision reader (Perkin Elmer). Emission ratio signals (520 nm/495 nm) were recorded and utilized to calculate the percent inhibition values based on DMSO and background controls.
(§4) For dose-response analysis, percent inhibition data were plotted vs. compound concentrations, and IC50 values were determined from a 4-parameter robust fit model with the Prism software (GraphPad Software). Results were expressed as pIC50 (negative logarithm of IC50) and subsequently converted to pKi (negative logarithm of dissociation constant, Ki) using the Cheng-Prusoff equation.

Tyk2 = Tyk2 (Homo sapiens (Human), UniProt P29597); test: Biochemical JAK and Tyk2 Kinase Assays (LanthaScreen), Tyk2; details: 10 μM ATP (Km), pIC50 converted to pKi by Cheng-Prusoff; for Ki: read-out: Tyk 2 (pKi) (converted)
Sequence of Tyk2 (P29597 whole entry): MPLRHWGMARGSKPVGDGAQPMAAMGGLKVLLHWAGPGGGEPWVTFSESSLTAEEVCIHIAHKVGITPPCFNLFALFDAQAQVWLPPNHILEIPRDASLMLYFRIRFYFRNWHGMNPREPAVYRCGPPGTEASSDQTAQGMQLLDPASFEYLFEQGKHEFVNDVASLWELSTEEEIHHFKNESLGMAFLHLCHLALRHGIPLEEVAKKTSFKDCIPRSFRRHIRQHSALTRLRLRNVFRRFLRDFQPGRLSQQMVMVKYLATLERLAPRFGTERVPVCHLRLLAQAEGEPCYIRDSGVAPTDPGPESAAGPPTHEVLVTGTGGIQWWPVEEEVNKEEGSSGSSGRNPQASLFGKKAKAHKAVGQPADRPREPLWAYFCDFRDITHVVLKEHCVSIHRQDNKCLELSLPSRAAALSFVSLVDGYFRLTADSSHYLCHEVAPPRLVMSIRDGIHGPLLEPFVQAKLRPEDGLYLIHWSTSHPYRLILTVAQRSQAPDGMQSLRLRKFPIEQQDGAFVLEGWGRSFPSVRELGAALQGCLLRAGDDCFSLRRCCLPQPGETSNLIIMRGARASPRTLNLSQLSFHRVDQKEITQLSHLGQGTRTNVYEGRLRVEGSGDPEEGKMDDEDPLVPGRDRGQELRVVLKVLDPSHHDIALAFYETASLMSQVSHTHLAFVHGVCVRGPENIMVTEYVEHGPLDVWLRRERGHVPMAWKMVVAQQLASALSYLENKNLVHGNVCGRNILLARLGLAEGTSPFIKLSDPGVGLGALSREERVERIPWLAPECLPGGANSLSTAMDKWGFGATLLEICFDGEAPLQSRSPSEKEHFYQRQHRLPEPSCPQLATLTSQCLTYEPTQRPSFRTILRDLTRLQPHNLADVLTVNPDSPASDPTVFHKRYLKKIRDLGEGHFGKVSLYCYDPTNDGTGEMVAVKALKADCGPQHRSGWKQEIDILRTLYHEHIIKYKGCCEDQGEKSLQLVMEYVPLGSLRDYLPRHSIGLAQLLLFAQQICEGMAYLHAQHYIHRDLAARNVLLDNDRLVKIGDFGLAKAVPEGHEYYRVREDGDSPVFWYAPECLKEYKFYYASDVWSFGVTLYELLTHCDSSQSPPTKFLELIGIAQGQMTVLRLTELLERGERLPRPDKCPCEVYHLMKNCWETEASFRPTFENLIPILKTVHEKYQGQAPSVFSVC
Description: as §1, §2, §3, §4

[2] = Solubility Assay in Organic Excipients; details: maximum upper limit 20,000 μM; for Solubility in MCT (mg/mL): medium chain triglycerides (MCT)
JAK1 = JAK1 (Homo sapiens (Human), UniProt P23458); test: Biochemical JAK and Tyk2 Kinase Assays (LanthaScreen), JAK1; details: 25 μM ATP (Km), pIC50 converted to pKi by Cheng-Prusoff
Sequence of JAK1 (P23458 whole entry): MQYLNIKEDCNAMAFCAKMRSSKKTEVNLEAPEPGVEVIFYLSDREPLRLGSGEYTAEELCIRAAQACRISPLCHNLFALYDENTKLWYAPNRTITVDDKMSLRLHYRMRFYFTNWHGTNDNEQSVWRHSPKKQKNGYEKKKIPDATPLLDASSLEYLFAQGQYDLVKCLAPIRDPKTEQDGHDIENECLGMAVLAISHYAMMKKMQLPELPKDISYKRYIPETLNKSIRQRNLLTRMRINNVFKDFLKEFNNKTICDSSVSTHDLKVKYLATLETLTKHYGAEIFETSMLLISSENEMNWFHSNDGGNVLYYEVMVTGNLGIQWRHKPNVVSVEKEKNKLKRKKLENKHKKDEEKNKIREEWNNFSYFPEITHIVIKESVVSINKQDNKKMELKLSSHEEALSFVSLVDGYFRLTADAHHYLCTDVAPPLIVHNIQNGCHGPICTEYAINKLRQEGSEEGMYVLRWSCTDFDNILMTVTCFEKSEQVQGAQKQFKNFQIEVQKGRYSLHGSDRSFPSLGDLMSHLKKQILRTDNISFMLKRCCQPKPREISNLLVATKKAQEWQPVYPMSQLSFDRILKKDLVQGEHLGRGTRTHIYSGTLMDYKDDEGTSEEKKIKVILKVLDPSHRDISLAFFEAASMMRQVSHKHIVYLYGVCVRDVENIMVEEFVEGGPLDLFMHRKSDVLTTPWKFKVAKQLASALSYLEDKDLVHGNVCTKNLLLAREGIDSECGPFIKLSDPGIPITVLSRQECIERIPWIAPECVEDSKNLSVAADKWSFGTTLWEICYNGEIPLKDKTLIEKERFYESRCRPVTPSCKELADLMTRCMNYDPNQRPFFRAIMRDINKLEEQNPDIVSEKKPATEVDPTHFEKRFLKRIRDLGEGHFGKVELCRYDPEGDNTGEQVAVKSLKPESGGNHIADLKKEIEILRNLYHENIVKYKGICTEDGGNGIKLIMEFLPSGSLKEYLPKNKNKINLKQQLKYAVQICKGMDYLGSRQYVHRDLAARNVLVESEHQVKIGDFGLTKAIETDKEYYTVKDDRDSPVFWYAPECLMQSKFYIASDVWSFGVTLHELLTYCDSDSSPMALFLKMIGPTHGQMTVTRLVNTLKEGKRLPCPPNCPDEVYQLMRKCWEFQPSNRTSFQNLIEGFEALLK

physchem = details: thermodynamic from solid
[3] = oil or lipid, Solubility in MCT (mg/mL)
[4] = organic solvent or mixture, Solubility in Diisopropyl adipate (mg/mL)
[5] = organic solvent or mixture, Solubility in PEG400 (mg/mL)
[6] = organic solvent or mixture, Solubility in Propylene glycol (mg/mL)

Sequence of JAK3 (P52333 whole entry): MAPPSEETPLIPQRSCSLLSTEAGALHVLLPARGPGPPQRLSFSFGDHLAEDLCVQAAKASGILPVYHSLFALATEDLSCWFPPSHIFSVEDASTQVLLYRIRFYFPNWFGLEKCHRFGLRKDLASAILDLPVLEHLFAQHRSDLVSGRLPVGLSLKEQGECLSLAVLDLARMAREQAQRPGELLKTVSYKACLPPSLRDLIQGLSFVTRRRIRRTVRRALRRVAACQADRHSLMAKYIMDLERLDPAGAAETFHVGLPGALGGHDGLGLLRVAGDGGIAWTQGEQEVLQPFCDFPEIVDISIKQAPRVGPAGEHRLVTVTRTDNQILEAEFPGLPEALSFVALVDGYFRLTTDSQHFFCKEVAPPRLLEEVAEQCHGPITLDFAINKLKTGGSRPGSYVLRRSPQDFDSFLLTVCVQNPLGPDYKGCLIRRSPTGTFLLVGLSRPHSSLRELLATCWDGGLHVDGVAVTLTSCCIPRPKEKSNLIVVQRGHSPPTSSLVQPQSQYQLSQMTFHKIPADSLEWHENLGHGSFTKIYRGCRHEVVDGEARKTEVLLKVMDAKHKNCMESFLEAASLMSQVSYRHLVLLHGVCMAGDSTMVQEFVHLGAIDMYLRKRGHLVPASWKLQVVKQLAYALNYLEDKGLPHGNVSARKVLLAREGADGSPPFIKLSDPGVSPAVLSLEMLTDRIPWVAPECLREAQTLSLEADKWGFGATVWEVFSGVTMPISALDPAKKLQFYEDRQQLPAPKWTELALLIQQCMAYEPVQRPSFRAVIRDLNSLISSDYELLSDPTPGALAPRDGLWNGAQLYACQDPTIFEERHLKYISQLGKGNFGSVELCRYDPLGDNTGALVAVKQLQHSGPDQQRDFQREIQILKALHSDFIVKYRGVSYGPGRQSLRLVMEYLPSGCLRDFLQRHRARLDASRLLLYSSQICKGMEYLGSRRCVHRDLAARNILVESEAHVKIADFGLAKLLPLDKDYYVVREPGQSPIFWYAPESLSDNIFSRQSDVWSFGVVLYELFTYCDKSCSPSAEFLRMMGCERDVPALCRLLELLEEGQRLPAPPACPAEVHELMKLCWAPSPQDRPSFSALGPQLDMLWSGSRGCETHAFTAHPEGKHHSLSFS

Structure (SMILES)	JAK 3 (pKi) (JAK3)	Cacoverap Kp 10^−6 cm/sec (Caco-2 cell monolayer)	Caco Kp 10^−6 cm/sec (Caco-2 cell monolayer)	Tall-1 IL2 pSTAT5 (pIC50) [1]	Solubility at PH 7.4 (μmol) (Aqueous Solubility Assay)	JAK 2 (pKi) (JAK2)	Tyk 2 (pKi) (Tyk2)	Solubility in PEG400 (mg/mL) [2]	Solubility in Diisopropyl adipate (mg/mL) [2]	Solubility in MCT (mg/mL) [2]	Solubility in Propylene glycol (mg/mL) [2]	JAK 1 (pKi) (JAK1)	Ki (JAK3) [nM]	IC50 [1] [nM]	solubility at 4 h (physchem; [3]) [µg/mL]	solubility at 4 h (physchem; [4]) [µg/mL]	solubility at 4 h (physchem; [5]) [µg/mL]	solubility at 4 h (physchem; [6]) [µg/mL]	Ki (Tyk2) [nM]	Ki (JAK1; read-out: JAK 1 (pKi) (converted)) [nM]
COC(=O)N1[C@@H]2CCC[C@H]1C[C@H](N(C)c1nc(Nc3cc(C)[nH]n3)cc(C3CCCO3)n1)C2 (stereo partly drawn) [Compound 11, methyl (1R,3s,5S)-3-(methyl(4-((5-methyl-1H-pyrazol-3-yl)amino)-6-(tetrahydrofuran-2-yl)pyrimidin-2-yl)amino)-9-azabicyclo[3.3.1]nonane-9-carboxylate]	C (C represents a pKi value between 8 and 9 (Ki between 10 nM and 1 nM))	B (B represents a value between 20×10^−6 and 35×10^−6 cm/sec)	B (B represents a value between 15×10^−6 and 30×10^−6 cm/sec)	A (A represents a pIC50 value ≥8.0)	C (C represents a value between 50 and 250)	B (B represents a pKi value between 9 and 10 (Ki between 1 nM and 0.1 nM))	B (B represents a pKi value between 9 and 10 (Ki between 1 nM and 0.1 nM))	A (A represents a value above 10)	A (A represents a value above 10)	B (B represents a value between 5 and 10)	A (A represents a value above 10)	A (A represents a pKi value ≥10 (Ki≤0.1 nM))	–	–	–	–	–	–	–	–
COCCOC(=O)N1[C@@H]2CCC[C@H]1C[C@H](N(C)c1nc(Nc3cc(C)[nH]n3)cc(C3CCCO3)n1)C2 (stereo partly drawn) [Compound 13, 2-methoxyethyl (1R,3s,5S)-3-(methyl(4-((5-methyl-1H-pyrazol-3-yl)amino)-6-(tetrahydrofuran-2-yl)pyrimidin-2-yl)amino)-9-azabicyclo[3.3.1]nonane-9-carboxylate]	C (C represents a pKi value between 8 and 9 (Ki between 10 nM and 1 nM))	–	–	B (B represents a pIC50 value between 7.5 (included) and 8.0)	C (C represents a value between 50 and 250)	A (A represents a pKi value ≥10 (Ki≤0.1 nM))	B (B represents a pKi value between 9 and 10 (Ki between 1 nM and 0.1 nM))	A (A represents a value above 10)	A (A represents a value above 10)	B (B represents a value between 5 and 10)	A (A represents a value above 10)	A (A represents a pKi value ≥10 (Ki≤0.1 nM))	–	–	–	–	–	–	–	–
Cc1cc(Nc2cc(C3CCCO3)nc(N(C)[C@@H]3C[C@H]4CCC[C@@H](C3)N4C(=O)OC3CCOCC3)n2)n[nH]1 (stereo partly drawn) [Compound 14, tetrahydro-2H-pyran-4-yl (1R,3s,5S)-3-(methyl(4-((5-methyl-1H-pyrazol-3-yl)amino)-6-(tetrahydrofuran-2-yl)pyrimidin-2-yl)amino)-9-azabicyclo[3.3.1]nonane-9-carboxylate]	C (C represents a pKi value between 8 and 9 (Ki between 10 nM and 1 nM))	B (B represents a value between 20×10^−6 and 35×10^−6 cm/sec)	B (B represents a value between 15×10^−6 and 30×10^−6 cm/sec)	B (B represents a pIC50 value between 7.5 (included) and 8.0)	D (D represents a value between 10 and 50)	A (A represents a pKi value ≥10 (Ki≤0.1 nM))	B (B represents a pKi value between 9 and 10 (Ki between 1 nM and 0.1 nM))	A (A represents a value above 10)	A (A represents a value above 10)	B (B represents a value between 5 and 10)	A (A represents a value above 10)	A (A represents a pKi value ≥10 (Ki≤0.1 nM))	–	–	–	–	–	–	–	–
Cc1cc(Nc2cc(O[C@@H]3CCOC3)nc(N(C)[C@@H]3C[C@H]4CCC[C@@H](C3)N4C(=O)OC3CCOCC3)n2)n[nH]1 [Compound 21]	–	B (B represents a value between 20×10^−6 and 35×10^−6 cm/sec)	B (B represents a value between 15×10^−6 and 30×10^−6 cm/sec)	–	–	A (A represents a pKi value ≥10 (Ki≤0.1 nM))	–	–	–	–	–	A (A represents a pKi value ≥10 (Ki≤0.1 nM))	0.1 to 1	10 to 31.6	5000 to 10000 (≈ 9.23 to 18.5 mM)	> 10000	> 10000	> 10000	0.1 to 1	–
COCCOC(=O)N1[C@@H]2CCC[C@H]1C[C@H](N(C)c1nc(Nc3cc(C)[nH]n3)cc(O[C@@H]3CCOC3)n1)C2 [Compound 22]	–	B (B represents a value between 20×10^−6 and 35×10^−6 cm/sec)	B (B represents a value between 15×10^−6 and 30×10^−6 cm/sec)	–	–	A (A represents a pKi value ≥10 (Ki≤0.1 nM))	–	–	–	–	–	A (A represents a pKi value ≥10 (Ki≤0.1 nM))	0.1 to 1	10 to 31.6	< 5000	> 10000	> 10000	> 10000	0.1 to 1	–
Cc1cc(Nc2cc(O[C@H]3CCOC3)nc(N(C)[C@@H]3C[C@H]4CCC[C@@H](C3)N4CC(=O)N3CCCC3)n2)n[nH]1 [Compound 31]	–	C (C represents a value between 12×10^−6 and 20×10^−6 cm/sec)	C (C represents a value below 15×10^−6 cm/sec)	–	–	A (A represents a pKi value ≥10 (Ki≤0.1 nM))	–	–	–	–	–	–	0.1 to 1	≤ 10	< 5000	< 5000	< 5000	< 5000	0.1 to 1	0.1 to 1
